# Key:
# [1] = tested on: Arabidopsis thaliana; assay: RNA-seq of ABA-treated etiolated seedlings (ABA time series); type: in vivo
# Procedure: For ABA time series experiments, two biological replicates of 3-day-old etiolated, hydroponic-grown wild-type Col-0 seedlings were treated either by 10 μM (+/−)-ABA (MP biomedicals LLC, cat. #190673) dissolved in ethanol or ethanol-only mock control for 1, 4, 8, 12, 24, 36, and 60 hours. For DEX treatment, short term experiment was carried out by treating 3-day-old etiolated, DEX-inducible GFP-DIG1, GFP-DIG2 or GFP lines with 10 μM DEX (Sigma Aldrich, cat. #D9184); long term experiment was carried out by growing the same lines of plants containing 500 nM DEX for 10 days. Total RNA was isolated using the RNeasy Plant Mini Kit (Qiagen, CA, USA, Cat. #74903), and cDNA libraries were constructed using the TruSeq Stranded Total RNA LT Sample Prep Kit (Illumina, CA, USA, Cat. #15032611) according to manufacturers' instructions. Single-end reads were generated by the HiSeq 2500 Sequencing System (Illumina) and mapped to TAIR10 genome assembly using TopHat 2 (v2.0.8) (56). Mapped reads with mapping score equal to or larger than 10 were counted by HTSeq (v0.5.4) (57) and analyzed by edgeR (v3.6.2) (18) to identify differentially expressed genes using contrasts between ABA- and mock-treated samples at each time point and false discovery rate 0.01 or 0.05 as thresholds.
# The genome-wide binding dynamics of a diverse collection of TFs was profiled using ChIP-seq to develop an in planta ABA transcriptional regulatory network. ABA-responsive transcripts were first surveyed in Arabidopsis thaliana, by generating strand-specific RNA-seq libraries from 3-day-old etiolated whole seedlings treated with either 10 uM (+/−)-ABA or an ethanol-containing mock for 1, 4, 8, 12, 24, 36 and 60 hours (FIG. 1A). Among 18,310 expressed genes, 3,061 are DE (FDR<0.01, Table 1) (18) for at least one time point. One hour of ABA treatment leads to moderate DE of many genes, and most transcriptional responses plateau after 8 hours (FIGS. 1B, 2). On the basis of gene expression data, we performed ChIP-seq experiments at four hours post ABA dose. TFs were selected based on responsiveness to ABA and published evidence, aiming to provide a good representation of TF families (FIG. 3; Tables 1 and 2). In general, highly expressed and responsive TFs were chosen in each representative TF family because in the context of an in planta experimental framework, the impact of these TFs on gene expression can be more effectively investigated compared with their weakly expressed homologs. All TF genes were epitope tagged by a recombineering-based approach (19), mostly with large DNA transformable artificial chromosomes, allowing the TFs to be expressed under their native promoters and genomic context (Table 2). The final dataset consisted of one hundred and twenty-two ChIP-seq experiments of 21 TFs from 11 families, including mock- and ABA-treated conditions.
# [2] = tested on: ChIPped TFs; assay: Western blot of epitope-tagged ChIPped TFs after ABA treatment; type: in vivo, Arabidopsis thaliana; settings: H3 loading control
# [3] = 10 uM ABA treatment for 4 hours
structure (smiles),measurement,setting,value
"CC1=CC(=O)CC(C)(C)C1(O)/C=C/C(C)=C\C(=O)O (racemic) [ABA, abscisic acid]",number of differentially expressed (DE) genes,"[1]; 10 uM (+/-)-ABA vs ethanol mock, 1-60 hours, DE for at least one time point, FDR<0.01, among 18,310 expressed genes","3,061"
same,RNA-seq evidence: ABF1,[1]; [3],up regulated
same,RNA-seq evidence: ABF3,[1]; [3],up regulated
same,RNA-seq evidence: ABF4,[1]; [3],up regulated
same,RNA-seq evidence: ANAC032,[1]; [3],up regulated
same,RNA-seq evidence: ANAC102,[1]; [3],up regulated
same,RNA-seq evidence: DREB2A,[1]; [3],up regulated
same,RNA-seq evidence: FBH3,[1]; [3],up regulated
same,RNA-seq evidence: GBF2,[1]; [3],up regulated
same,RNA-seq evidence: GBF3,[1]; [3],up regulated
same,RNA-seq evidence: HAT22,[1]; [3],up regulated
same,RNA-seq evidence: HB6,[1]; [3],up regulated
same,RNA-seq evidence: HSFA6A,[1]; [3],up regulated
same,RNA-seq evidence: MYB3,[1]; [3],up regulated
same,RNA-seq evidence: MYB44,[1]; [3],up regulated
same,RNA-seq evidence: NF-YB2,[1]; [3],up regulated
same,RNA-seq evidence: NF-YC2,[1]; [3],up regulated
same,RNA-seq evidence: RD26 (ANAC072),[1]; [3],up regulated
same,RNA-seq evidence: ZAT6,[1]; [3],up regulated
same,number of differentially expressed TFs,"[1]; first 1, 4 or 8 hours of ABA treatment, edgeR FDR threshold 0.05",Two hundred and twenty-two
same,protein abundance of most ChIPped TFs,[2],elevated

# — US10913952B2, “Environmental stress response transcriptional regulatory network” (Salk Institute for Biological Studies, priority 2016, dated 2021)
